Assay [1] concerns the target human apotransferrin (<0.7% iron-saturated) (Homo sapiens, UniProt P02787). Nature of the assay: Control incubation with human apotransferrin (<0.7% iron-saturated). It is filed as biochemical. The settings on record: apotransferrin 38 mg/ml. On the procedure:
(§1) A. 40% Iron-Saturated Human Transferrin. To assess the capacity of the 3 different desferri-Exochelins to remove iron from 40% iron-saturated human transferrin, each of them was incubated for 1, 3, and 24 hours with 40% iron-saturated transferrin such that the ratio of Fe^3+: desferri-Exochelin equaled 10:1. The incubation was carried out in PBS, pH 7.4. Afterwards, the Exochelin and transferrin were separated from each other by centrifugation through a 10,000 dalton cut-off filter. The transferrin (mass 76,000 daltons) was completely excluded by this filter whereas 85% of the Exochelin (mass<1,000) was recovered in the filtrate. To determine the total amount of exochelin recovered, the exochelin in the filtrate was saturated with a 20:1 molar excess of ferric ammonium citrate and subjected to reverse-phase HPLC as described above. To determine the amount of iron-saturated Exochelin in the filtrate at each time point, the filtrate was subjected to reverse-phase HPLC without the addition of iron. The % iron-saturation was calculated as follows: [formula]
C. Apotransferrin (<0.7% Iron-Saturated Human Transferrin). As a control, the three desferri-exochelins were incubated for 3 h and 24 h with human apotransferrin (<0.7% iron-saturated) at a concentration of 38 mg/ml, the same concentration of protein as in the study utilizing 92% iron-saturated transferrin in B above. None of the desferri-exochelins acquired appreciable amounts of iron (Table 6).

The target in assay [2] is holo-transferrin (92% iron-saturated human transferrin) (Homo sapiens, UniProt P02787). Kind of assay: Capacity to remove iron from holo-transferrin (92% iron-saturated human transferrin). The class given is biochemical. The settings on record: Fe3+:desferri-Exochelin 10:1. Here is the method:
as §1
B. Holo-Transferrin (92% Iron-Saturated Human Transferrin). To assess the capacity of the 3 different desferri-Exochelins to remove iron from holo-transferrin (92% iron-saturated human transferring, each of them was incubated for 1, 3, and 24 h with 92% iron-saturated transferrin such that the ratio of Fe^3+: desferri-Exochelin equaled 10:1, as in the aforementioned study with 40% iron-saturated transferrin. The % iron-saturation of the Exochelins was assayed as above.

Assay [3] deals with T1, 40% iron-saturated human transferrin (Homo sapiens, UniProt P02787). Nature of the assay: Capacity to remove iron from 40% iron-saturated human transferrin. The class given is biochemical. The settings on record: Fe3+:desferri-Exochelin 10:1, PBS pH 7.4. On the procedure: as §1
T1 sequence (P02787 20-698): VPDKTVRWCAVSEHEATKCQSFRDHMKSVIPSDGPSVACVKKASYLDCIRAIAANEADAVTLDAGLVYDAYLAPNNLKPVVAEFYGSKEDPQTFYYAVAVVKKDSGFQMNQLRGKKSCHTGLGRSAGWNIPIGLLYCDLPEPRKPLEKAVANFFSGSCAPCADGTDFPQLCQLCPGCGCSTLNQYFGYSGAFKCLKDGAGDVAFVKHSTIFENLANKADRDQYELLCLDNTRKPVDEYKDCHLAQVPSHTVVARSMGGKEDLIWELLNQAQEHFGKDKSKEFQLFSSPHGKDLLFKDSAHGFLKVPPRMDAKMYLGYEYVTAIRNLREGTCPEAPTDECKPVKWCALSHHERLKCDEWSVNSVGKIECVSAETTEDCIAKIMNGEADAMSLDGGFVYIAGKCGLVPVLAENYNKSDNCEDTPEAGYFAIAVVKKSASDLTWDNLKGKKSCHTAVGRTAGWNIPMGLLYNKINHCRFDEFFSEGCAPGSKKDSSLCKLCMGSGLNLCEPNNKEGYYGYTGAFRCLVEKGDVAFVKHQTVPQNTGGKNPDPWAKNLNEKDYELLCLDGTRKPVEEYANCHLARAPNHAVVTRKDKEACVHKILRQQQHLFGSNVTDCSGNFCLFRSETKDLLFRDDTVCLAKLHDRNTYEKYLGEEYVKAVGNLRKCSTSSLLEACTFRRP
For assay [4], the target named is T1, 40% iron-saturated human transferrin. The assay is described as above. It is filed as biochemical. The settings on record: Fe3+:desferri-Exochelin 10:1, PBS pH 7.4. This is another data set of the same source.
The subject of assay [5] is ferri-Exochelin 758SM. Nature of the assay: Capacity to remove iron from a different Exochelin species (Ferri-Exochelin 758SM). The class given is binding. The settings on record: for % of Calculated Iron-Saturation at Equilibrium 0 h / % Iron-Saturation 0 h / % of Calculated Iron-Saturation at Equilibrium 1 h / % Iron-Saturation 1 h: Table 1; for % Iron-Saturation 0 h / % Iron-Saturation 1 h / % Iron-Saturation 0 hour / % Iron-Saturation 1 hour: mixed with ferri-Exochelin 758SM. On the procedure:
C. Capacity to Remove Iron from a Different Exochelin Species. To assess the affinity of the synthetic desferri-Exochelin 772SM(R) for iron, its capacity to remove iron from a different Exochelin species, ferri-Exochelin 758SM, was evaluated. The capacity of synthetic and native desferri-Exochelin 772SM(R) to remove iron from ferri-Exochelin 758SM was also evaluated and compared. Either native or synthetic desferri-Exochelin 772SM(R) were independently mixed with ferri-Exochelin 758SM. The amount of iron acquired in 1 hour by the desferri-Exochelins was assayed by subjecting the Exochelin to reverse-phase HPLC on a phenyl column, as described above, and the area under the 450 nm absorbance peak was measured. The amount of iron-Exochelin was then calculated using a conversion factor derived from assaying known amounts of ferri-Exochelin 772SM(R).
C. Capacity to Remove Iron from a Different Exochelin Species. To assess the affinity of the synthetic desferri-Exochelin 772SM(S) for iron, its capacity to remove iron from a different exochelin species, ferri-Exochelin 758SM was evaluated. The capacity of synthetic desferri-Exochelin 772SM(S) and native desferri-Exochelin 772SM(R) to remove iron from ferri-Exochelin 758SM was also evaluated and compared. Either synthetic desferri-Exochelin 772SM(S) or native desferri-Exochelin 772SM(R) was mixed with ferri-Exochelin 758SM. The amount of iron acquired by the desferri-exochelins after 1 hour was assayed by subjecting the molecule to reverse-phase HPLC on a phenyl column, as described above, and the area under the 450 nm absorbance peak was measured. The amount of iron-exochelin was then calculated using a conversion factor derived from assaying known amounts of ferri-Exochelin 772SM(R) and ferri-Exochelin 772SM(S).

The test system of assay [6] is ferri-Exochelin 758SM. Kind of assay: Capacity to remove iron from Ferri-Exochelin 758SM in the same vial (772SM(R) vs 772SM(S)). The class given is binding. The settings on record: Table 3, 772SM(R), 772SM(S) and 758SM in the same vial. Here is the method:
To further assess the relative affinities of the stereoisomers desferri-Exochelin 772SM(R) and 772SM(S) for iron, their capacity to remove iron from a different exochelin species in the same vial were compared.
In the experiment,15.6 μg of 1.1% iron-saturated synthetic Exochelin 772SM(R) and 17.4 μg of 1.0% iron-saturated synthetic Exochelin 772SM(S) was mixed with 13.5 μg of 100% iron-saturated native Exochelin 758SM.

[7] abbreviates: listed as Native Desferri-Exochelin 772SM(R).
Where [8] appears, read: listed as native desferri-exochelin 772SM(R).
Setting [9] is: assuming comparable affinities for iron, 15.1 µg 772SM(R), Experiment I.
[10] abbreviates: assuming comparable affinities for iron, 15.8 µg 772SM(R), Experiment II.

Values joined by “and” are separate entries in the source; they are usually repeats but may differ in a detail not shown here. Equal values may be shown once.

Sequence of human apotransferrin (<0.7% iron-saturated) (P02787 20-698): as above
Sequence of holo-transferrin (92% iron-saturated human transferrin) (P02787 20-698): as above

“Exochelin 772SM(R) [Native 772SM(R), reference compound]”: the “Iron-Saturation 0 h” value in assay [1] (0 h), in assay [2] (0 h) and in assay [4] was 2.8% in each case. The “Iron-Saturation 3 h” value in assay [1] (3 h) was determined as 9.3%; in assay [2] (3 h) it was 19.0%; in assay [3] (3 h) it was 13.8%. For the same substance, the “Iron-Saturation 24 h” value in assay [1] (24 h) turned out to be 6.8%; in assay [2] (setting [7]) it was 54.1%; in assay [2] (setting [8]) it was 54.1%; in assay [3] (setting [7]), 34.0%; in assay [3] (setting [8]), 34.0%. Also, the “Iron-Saturation 1 h” value in assay [2] (1 h) stood at 11.6%; in assay [3] (1 h) it was 9.3%. Moreover, the “% of Calculated Iron-Saturation at Equilibrium 0 h” value in the assay with ferri-Exochelin 758SM [5] (setting [9]) is 6.8%; with ferri-Exochelin 758SM [5] (setting [10]), 5.0%. The “% Iron-Saturation 0 h” value in the assay on ferri-Exochelin 758SM [5] stood at 2.8%. The “% of Calculated Iron-Saturation at Equilibrium 1 h” value is 85.8% with ferri-Exochelin 758SM [5] (setting [9]); 81.6% in the assay on ferri-Exochelin 758SM [5] (setting [10]); 85.8% and 81.6% in the assay on ferri-Exochelin 758SM [5] (assuming comparable affinities for iron, listed as native Exochelin 772SM(R)). In addition, the “% Iron-Saturation 1 h” value is 46.4% in the assay with ferri-Exochelin 758SM [5] (15.1 µg 772SM(R), Experiment I); 45.6% in the assay with ferri-Exochelin 758SM [5] (15.8 µg 772SM(R), Experiment II); 46.4% and 45.6% with ferri-Exochelin 758SM [5] (listed as native Exochelin 772SM(R)). The “% of Calculated Iron-Saturation at Equilibrium 0 hour” value in the assay on ferri-Exochelin 758SM [5] (Table 2, 0 hour, assuming comparable affinities for iron) is recorded as 5.4%. The “% Iron-Saturation 0 hour” value with ferri-Exochelin 758SM [5] (Table 2, 0 hour) was found to be 2.8%. The “% of Calculated Iron-Saturation at Equilibrium 1 hour” value is on record as 88.7% in the assay on ferri-Exochelin 758SM [5] (Table 2, assuming comparable affinities for iron) and 88.7% in the assay with ferri-Exochelin 758SM [5] (Table 2, assuming comparable affinities for iron, listed as native Exochelin 772SM(R)). Moreover, the “% Iron-Saturation 1 hour” value with ferri-Exochelin 758SM [5] (Table 2) came out at 46.2%.

With “Exochelin 758SM [Native 758SM, reference compound]”, the “% Iron-Saturation 0 hour” value in the assay with ferri-Exochelin 758SM [6] (0 hour) is reported as 100%; with ferri-Exochelin 758SM [5] (Table 2, 0 hour), 100%. Besides, the “% Iron-Saturation 1 hour” value was found to be 40.0% in the assay on ferri-Exochelin 758SM [6] (1 hour); 61.7% in the assay with ferri-Exochelin 758SM [5] (Table 2, with native desferri-Exochelin 772SM(R)); 55.9% in the assay on ferri-Exochelin 758SM [5] (Table 2, with synthetic desferri-Exochelin 772SM(R)); 54.1% in the assay on ferri-Exochelin 758SM [5] (Table 2, with synthetic desferri-Exochelin 772SM(S)). Also, the “% Iron-Saturation 0 h” value in the assay with ferri-Exochelin 758SM [5] is given as 100%.

Values taken from US6335443B1, “Chemical synthesis of exochelins” (Keystone Biomedical, Inc., priority 1998, dated 2002).
